Data from PMC6471532, “Drug Transport across Porcine Intestine Using an Ussing Chamber System: Regional Differences and the Effect of P-Glycoprotein and CYP3A4 Activity on Drug Absorption” (Pharmaceutics, 2019).
Converted amounts (≈) assume the structure as drawn.

Columns and labels:
human jejunum = details: cited from earlier work; for Peff,human^a In Vivo: Loc-I-Gut, jejunal segment, cylindrical surface area; for Peff,human^b In Vivo: Loc-I-Gut with physiological estimates of the surface area for absorption
[1] = Solubility in KBR, FaSSIF V2 and FeSSIF V2
[2] = Passive absorption across viable porcine intestine (jejunum) ex vivo, Ussing chamber, from KBR and biorelevant media; details: female, Swiss noble, pig
[3] = tested on: viable porcine intestine (jejunum); experiment: as above; details: for QDEP FeSSIF V2 / QDEP KBR / QDEP FaSSIF V2: amount deposited in intestine at 2 h as % of donor; for QPERM FeSSIF V2 / QPERM KBR / QPERM FaSSIF V2: amount permeated at 2 h as % of donor
[4] = Segmental drug permeation across porcine duodenum, jejunum, ileum and colon, Ussing chamber; format: in vitro ADME, pig; details: female, Swiss noble, pig, 100 µM in KBR
[5] = tested on: porcine duodenum, jejunum, ileum and colon; experiment: as above; format: in vitro ADME, pig; details: KBR, 2 h
human intestine = details: Ussing chamber; cited from earlier work
P-gp [6] = biological target: T1, P-gp (Sus scrofa, UniProt K7GMM7)
P-gp [7] = biological target: T1, P-gp; experiment: in vitro; details: female, Swiss noble, pig, pH 7.4, with verapamil hydrochloride 100 µM in the donor compartment
CYP3A4 [8] = details: jejunum
CYP3A4 [9] = experiment: in vitro; details: female, Swiss noble, pig, jejunum, 100 µM in KBR
[10] = source not given; cited from earlier work
[11] = KBR buffer, pH 7.4, aqueous buffer

T1 sequence (K7GMM7 1-1248): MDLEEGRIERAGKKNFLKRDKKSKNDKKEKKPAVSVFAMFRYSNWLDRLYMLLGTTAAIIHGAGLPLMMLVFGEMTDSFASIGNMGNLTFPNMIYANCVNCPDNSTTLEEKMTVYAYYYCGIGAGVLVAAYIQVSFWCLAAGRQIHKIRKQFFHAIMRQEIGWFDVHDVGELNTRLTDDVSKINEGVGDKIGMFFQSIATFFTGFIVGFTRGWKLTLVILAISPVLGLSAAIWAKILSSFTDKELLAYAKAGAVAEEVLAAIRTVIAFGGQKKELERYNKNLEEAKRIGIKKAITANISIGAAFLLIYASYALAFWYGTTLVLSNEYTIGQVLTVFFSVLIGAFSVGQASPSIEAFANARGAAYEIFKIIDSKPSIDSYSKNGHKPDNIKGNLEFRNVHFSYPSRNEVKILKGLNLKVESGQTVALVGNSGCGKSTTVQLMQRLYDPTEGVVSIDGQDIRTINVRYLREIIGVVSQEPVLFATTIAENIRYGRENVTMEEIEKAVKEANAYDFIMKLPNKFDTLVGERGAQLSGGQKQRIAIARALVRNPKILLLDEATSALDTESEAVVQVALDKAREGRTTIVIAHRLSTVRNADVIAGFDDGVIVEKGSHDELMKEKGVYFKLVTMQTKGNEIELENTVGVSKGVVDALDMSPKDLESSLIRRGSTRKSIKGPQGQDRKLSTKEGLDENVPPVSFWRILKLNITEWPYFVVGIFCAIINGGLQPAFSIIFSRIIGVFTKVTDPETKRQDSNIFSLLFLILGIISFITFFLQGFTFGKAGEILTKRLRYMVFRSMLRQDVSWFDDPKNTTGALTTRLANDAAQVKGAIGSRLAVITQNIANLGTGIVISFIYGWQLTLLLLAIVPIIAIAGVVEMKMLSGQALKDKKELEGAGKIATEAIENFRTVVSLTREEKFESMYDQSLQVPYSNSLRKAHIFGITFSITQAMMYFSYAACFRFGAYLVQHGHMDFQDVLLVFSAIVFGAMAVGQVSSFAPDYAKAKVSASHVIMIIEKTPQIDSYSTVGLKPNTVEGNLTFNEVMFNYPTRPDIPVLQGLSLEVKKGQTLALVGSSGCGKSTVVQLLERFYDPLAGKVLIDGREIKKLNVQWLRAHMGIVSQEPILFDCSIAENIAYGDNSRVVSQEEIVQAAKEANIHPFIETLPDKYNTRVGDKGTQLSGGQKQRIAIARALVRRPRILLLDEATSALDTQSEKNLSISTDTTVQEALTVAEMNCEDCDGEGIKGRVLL

Row | SMILES | Peff,human^a In Vivo (human jejunum) | solubility ([1]; FaSSIF V2, pH 6.5, fassif) | solubility ([1]; FeSSIF V2, pH 5.8, fessif) | solubility [1, 11] | Papp at 120 min, 100 µM ([2]; pH 5.8) | Papp at 120 min, 100 µM ([2]; pH 6.5) | Papp at 120 min, 100 µM ([2]; pH 7.4) | QDEP FeSSIF V2 [3] | QDEP KBR [3] | QPERM FeSSIF V2 [3] | QPERM KBR [3] | QDEP FaSSIF V2 [3] | QPERM FaSSIF V2 [3] | also measured
1 | NC(=O)N1c2ccccc2C=Cc2ccccc21 [Carbamazepine] | 430 n.a. [31] 10^−6 cm/s | 320 ± 10 µg/mL (≈ 1.35 mM) | 730 ± 10 µg/mL (≈ 3.09 mM) | 200 ± 20 µg/mL (≈ 0.846 mM) | 4.26 ± 0.96 ×10⁻⁶ cm/s | 5.97 ± 0.52 ×10⁻⁶ cm/s | 7.81 ± 5.69 ×10⁻⁶ cm/s | 3.45 ± 0.52% | 1.44 ± 0.16% | 0.58 ± 0.22% | 2.39 ± 0.42% | – | – | –
2 | NS(=O)(=O)c1cc2c(cc1Cl)NCNS2(=O)=O [Hydrochlorothiazide] | 4 n.a. [31] 10^−6 cm/s | – | – | – | 1.37 ± 0.53 ×10⁻⁶ cm/s | 0.2 ± 0.25 ×10⁻⁶ cm/s | 2.88 ± 2.84 ×10⁻⁶ cm/s | 0.74 ± 0.09% | – | 0.23 ± 0.08% | – | 0.22 ± 0.11% | 0.11 ± 0.05% | –
3 | COCCc1ccc(OCC(O)CNC(C)C)cc1 (racemic) [Metoprolol, (+/−)-Metoprolol] | – | 43800 ± 15800 µg/mL (≈ 164 mM) | 381000 ± 33800 µg/mL (≈ 1420 mM) | 298000 ± 13900 µg/mL (≈ 1110 mM) | 5.79 ± 1.38 ×10⁻⁶ cm/s | 7.62 ± 1.41 ×10⁻⁶ cm/s | 10.6 ± 2.92 ×10⁻⁶ cm/s | 0.22 ± 0.01% | 0.28 ± 0.04% | 0.74 ± 0.08% | 0.18 ± 0.05% | 0.12 ± 0.03% | 0.89 ± 0.19% | Papp at 120 min, 100 µM ([4]; pH 7.4, colon, read-out: Papp,pig Ex Vivo Colon): 17.6 ± 5.41 ×10⁻⁶ cm/s; Papp at 120 min, 100 µM ([4]; pH 7.4, duodenum, read-out: Papp,pig Ex Vivo Duodenum): 0.39 ± 0.16 ×10⁻⁶ cm/s; Papp at 120 min, 100 µM ([4]; pH 7.4, ileum, read-out: Papp,pig Ex Vivo Ileum): 6.87 ± 1.23 ×10⁻⁶ cm/s; Papp at 120 min, 100 µM ([4]; pH 7.4, jejunum, read-out: Papp,pig Ex Vivo Jejunum): 10.6 ± 2.92 ×10⁻⁶ cm/s; QDEP Colon ([5]; colon): 0.02 ± 0.00%; QPERM Colon ([5]; colon): 1.65 ± 0.87 (6) %; QDEP Duodenum ([5]; duodenum): 2.35 ± 0.25%; QPERM Duodenum ([5]; duodenum): 0.14 ± 0.08 (5) %; QDEP Ileum ([5]; ileum): 1.89 ± 0.67%; QPERM Ileum ([5]; ileum): 0.83 ± 0.09 (5) %; QPERM Jejunum ([5]; jejunum): 0.18 ± 0.05 (4) %; Papp,human jejunum (human intestine): 15.9 ± 3.69 10^−6 cm/s
4 | CNC(=C[N+](=O)[O-])NCCSCc1ccc(CN(C)C)o1 [Ranitidine] | – | 15900 ± 1470 µg/mL (≈ 50.5 mM) | 808000 ± 70500 µg/mL (≈ 2570 mM) | 19600 ± 2780 µg/mL (≈ 62.5 mM) | – | – | – | – | – | – | – | – | – | Effect of the presence of verapamil on Papp,pig in the ileum (P-gp [6]; ileum, verapamil 100 µM, Student's t-test): significantly increased; QDEP Ileum (+VER) (P-gp [6]; ileum, with verapamil 100 µM): 7.91 ± 0.74%; QPERM Ileum (+VER) (P-gp [6]; ileum, with verapamil 100 µM): 0.25 ± 0.03 (6) %; QDEP Ileum (−VER) (P-gp [6]; ileum, without verapamil): 1.10 ± 0.59%; QPERM Ileum (−VER) (P-gp [6]; ileum, without verapamil): 0.55 ± 0.35 (4) %; Difference in Papp,pig across the jejunum in the presence or absence of verapamil (P-gp [6]; jejunum, verapamil 100 µM): No statistically significant difference; QDEP Jejunum (+VER) (P-gp [6]; jejunum, with verapamil 100 µM): 5.47 ± 0.75%; QPERM Jejunum (+VER) (P-gp [6]; jejunum, with verapamil 100 µM): 0.23 ± 0.15 (5) %; QDEP Jejunum (−VER) (P-gp [6]; jejunum, without verapamil): 1.32 ± 0.31%; QPERM Jejunum (−VER) (P-gp [6]; jejunum, without verapamil): 0.67 ± 0.12 (6) %; Papp at 120 min, 100 µM (P-gp [7]): 4.92 ×10⁻⁶ cm/s
5 | Cc1ncc2n1-c1ccc(Cl)cc1C(c1ccccc1F)=NC2 [Midazolam] | – | – | – | – | – | – | – | – | – | – | – | – | – | Effect of the presence of clotrimazole on Papp,pig (CYP3A4 [8]; clotrimazole 100 µM): significantly increased; QDEP (+CLOTR) (CYP3A4 [8]; with clotrimazole 100 µM): 7.49 ± 2.50%; QPERM (+CLOTR) (CYP3A4 [8]; with clotrimazole 100 µM): 0.18 ± 0.08%; QDEP (−CLOTR) (CYP3A4 [8]; without clotrimazole): 8.06 ± 1.33%; QPERM (−CLOTR) (CYP3A4 [8]; without clotrimazole): 0.13 ± 0.09%; Papp at 120 min, 100 µM (CYP3A4 [9]; pH 7.4, Papp,pig Ex Vivo (+CLOTR), with clotrimazole 100 µM): 0.46 ± 0.07 ×10⁻⁶ cm/s; Papp at 120 min, 100 µM (CYP3A4 [9]; pH 7.4, Papp,pig Ex Vivo (−CLOTR), without clotrimazole): 0.183 ± 0.138 ×10⁻⁶ cm/s; log P [10]: 3.89
6 | COc1ccc2cc([C@H](C)C(=O)O)ccc2c1 [Naproxen] | 850 n.a. [31] 10^−6 cm/s | – | – | – | – | – | – | 4.74 ± 1.04% | – | – | – | – | – | Peff,human^b In Vivo (human jejunum): 27–42 [77] 10^−6 cm/s
7 | CN1C(C(=O)Nc2ccccn2)=C(O)c2ccccc2S1(=O)=O [Piroxicam] | 665 n.a. [31] 10^−6 cm/s | 290 ± 20 µg/mL (≈ 0.875 mM) | 60 µg/mL (≈ 0.181 mM) | 430 ± 20 µg/mL (≈ 1.3 mM) | 5.14 ± 0.78 ×10⁻⁶ cm/s | 10.8 ± 3.7 ×10⁻⁶ cm/s | 8.93 ± 2.03 ×10⁻⁶ cm/s | 0.21 ± 0.04% | 4.12 ± 0.15% | 1.13 ± 0.46% | 2.52 ± 0.70% | 5.63 ± 0.26% | 2.32 ± 0.79% | log P [10]: 3.06
8 | NS(=O)(=O)c1cc(C(=O)O)c(NCc2ccco2)cc1Cl [Furosemide] | 5 n.a. [31] 10^−6 cm/s | – | – | – | – | – | – | 1.52 ± 0.24% | – | – | – | 2.22 ± 0.17% | – | Peff,human^b In Vivo (human jejunum): 1–1.6 [77] 10^−6 cm/s
9 | OCc1ncc2n1-c1ccc(Cl)cc1C(c1ccccc1F)=NC2 [α-hydroxymidazolam] | – | – | – | – | – | – | – | – | – | – | – | – | – | Amount of principal metabolite in the intestinal tissue in the presence of clotrimazole (CYP3A4 [8]; parent drug 100 µM, clotrimazole 100 µM): significantly decreased
